According to ChEMBL document CHEMBL4196245, “Structures and Antimutagenic Effects of Onoceranoid-Type Triterpenoids from the Leaves of Lansium domesticum” (2018):
Active and inactive are the calls of the source. No cut-off for these calls is given here.

Tests used:
Salmonella typhimurium [1] = assay: Antimutagenic activity against Salmonella typhimurium TA98 assessed as inhibition of Trp-P-1-induced mutation at 100 nmol/plate measured in presence of S9 fraction by Ames test relative to control; format: functional, Salmonella enterica subsp. enterica serovar Typhimurium
Salmonella typhimurium [2] = assay: Antimutagenic activity against Salmonella typhimurium TA98 assessed as inhibition of Trp-P-1-induced mutation at 80 nmol/plate measured in presence of S9 fraction by Ames test relative to control; format: functional, Salmonella enterica subsp. enterica serovar Typhimurium
Mus musculus = species on record: Mus musculus; assay: Antimutagenic activity against PhIP-induced mutation in ICR mouse assessed as reduction in micronucleated reticulocytes at 0.03 to 0.06% w/w treated prior to PhIP addition measured 24 to 48 hrs post dose by fluorescence microscopic analysis; format: functional, organism-based

SMILES	inhibition (INH) (Salmonella typhimurium [1]) [%]	further results
C=C(C)[C@@H]1CC=C(C)[C@H](CC[C@H]2C(=C)CC[C@H]3C(C)(C)[C@@H](O)CC[C@]23C)[C@@]1(C)CCC(=O)O	73.8	–
COc1ccc(-c2cc(=O)c3c(OC)c(OC)c(OC)c(OC)c3o2)cc1OC [NOBILETIN]	–	inhibition (INH) (Salmonella typhimurium [2]): 56%
C=C(C)[C@@H]1CC=C(C)[C@H](CC[C@H]2C(=C)CC[C@H]3C(C)(C)[C@@H](O)CC[C@]23C)[C@@]1(C)CCC(=O)OCC [ETHYL LANSIOLATE]	7.9	–
C=C(C)[C@@H]1CC=C(C)[C@H](CC[C@H]2C(=C)CC[C@H]3C(C)(C)[C@@H](O)CC[C@]23C)[C@@]1(C)CCC(=O)OC	29.5	–
C=C(C)[C@@H]1CC=C(C)[C@H](CC[C@H]2C(=C)CC[C@H]3C(C)(C)C(=O)CC[C@]23C)[C@@]1(C)CCC(=O)O	–	Activity (Mus musculus): Active
